# According to publication PMC8878047 (Pharmaceutics, 2022):
# System: KM mice
# Format: in vivo
# Details: high-dose group, dead mice, HE staining
# Method: After the acute toxicity test, the dead mice after oral administration and the surviving mice at the end of the observation period were promptly dissected and pathologically examined. […] We dissected the important organs (heart, liver, spleen, lung, kidney, large intestine, and small intestine) of dead mice and normal mice in the high-dose group of each drug solution. Then, the main organs were fixed in 10% buffered formalin and embedded in paraffin for 1–4 h. They were histopathologically examined under the optical microscope after slicing and staining with hematoxylin-eosin (HE) staining. No fixed parameters were compared between the treatment and control groups.
smiles,measurement,value
"CCN1CCN(c2cc3c(cc2F)c(=O)c(C(=O)[O-])cn3C2CC2)CC1.[Na+] [EFX-Na, reference compound]",histopathological finding in kidney tissue,more and larger glomeruli in kidney tissue
